Data as given in article PMC6458995, “MAP4K4 Inhibition Promotes Survival of Human Stem Cell-Derived Cardiomyocytes and Reduces Infarct Size In Vivo” (Cell Stem Cell, 2019).

What was measured:
Assay in all cases: Dundee kinase panel
Assay type in all cases: biochemical
Settings in all cases: for remaining activity at 1 µM: read-out: residual activity
[1] = target: T1, MLK3 (Homo sapiens, UniProt Q16584)
T1 construct: lines 1-140) and Reaction Biology
Experimental: (§1) Compounds were screened at 1 μM. For key hits, pIC50 values were then determined by HTRF as above. […] Stability in mouse and human liver microsomes was determined by Cyprotex.

[2] = target: T2, TSSK1 (Homo sapiens, UniProt Q9BXA7)
T2 construct: lines 1-140) and Reaction Biology
T2 sequence (Q9BXA7 1-367): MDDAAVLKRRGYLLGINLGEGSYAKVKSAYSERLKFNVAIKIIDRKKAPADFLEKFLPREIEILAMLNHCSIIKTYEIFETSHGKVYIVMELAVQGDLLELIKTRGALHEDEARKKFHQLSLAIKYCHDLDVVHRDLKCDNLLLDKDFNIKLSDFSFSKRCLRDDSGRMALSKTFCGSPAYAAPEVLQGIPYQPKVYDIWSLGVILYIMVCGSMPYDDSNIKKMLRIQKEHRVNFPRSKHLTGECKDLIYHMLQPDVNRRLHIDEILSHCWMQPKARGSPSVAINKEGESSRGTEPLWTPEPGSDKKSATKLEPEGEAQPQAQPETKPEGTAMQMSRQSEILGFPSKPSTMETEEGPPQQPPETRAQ
Experimental: as §1

[3] = target: T3, IRAK1 (Homo sapiens, UniProt P51617)
T3 construct: lines 1-140) and Reaction Biology
Experimental: as §1

[4] = target: T4, MPSK1 (Homo sapiens, UniProt O75716)
T4 construct: lines 1-140) and Reaction Biology
Experimental: as §1

[5] = target: T5, PDK1 (Homo sapiens, UniProt O15530)
T5 construct: lines 1-140) and Reaction Biology
T5 sequence (O15530 1-556): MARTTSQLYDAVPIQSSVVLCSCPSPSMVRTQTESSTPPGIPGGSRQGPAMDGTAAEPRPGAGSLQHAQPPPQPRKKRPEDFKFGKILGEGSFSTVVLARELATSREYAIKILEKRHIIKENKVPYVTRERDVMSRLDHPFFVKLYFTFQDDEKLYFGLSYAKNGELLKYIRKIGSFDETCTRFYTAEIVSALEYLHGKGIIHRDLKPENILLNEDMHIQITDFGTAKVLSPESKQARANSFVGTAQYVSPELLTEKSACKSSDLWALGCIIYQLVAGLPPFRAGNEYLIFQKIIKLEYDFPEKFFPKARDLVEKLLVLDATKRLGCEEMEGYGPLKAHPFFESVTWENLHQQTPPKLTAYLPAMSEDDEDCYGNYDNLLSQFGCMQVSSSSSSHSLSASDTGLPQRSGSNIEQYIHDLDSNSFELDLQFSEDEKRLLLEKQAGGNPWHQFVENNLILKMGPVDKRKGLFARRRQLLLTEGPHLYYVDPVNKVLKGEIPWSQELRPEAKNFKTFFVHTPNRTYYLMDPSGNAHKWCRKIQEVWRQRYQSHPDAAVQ
Experimental: as §1

[6] = target: T6, p38g MAPK (Homo sapiens, UniProt P53778)
T6 construct: lines 1-140) and Reaction Biology
T6 sequence (P53778 1-367): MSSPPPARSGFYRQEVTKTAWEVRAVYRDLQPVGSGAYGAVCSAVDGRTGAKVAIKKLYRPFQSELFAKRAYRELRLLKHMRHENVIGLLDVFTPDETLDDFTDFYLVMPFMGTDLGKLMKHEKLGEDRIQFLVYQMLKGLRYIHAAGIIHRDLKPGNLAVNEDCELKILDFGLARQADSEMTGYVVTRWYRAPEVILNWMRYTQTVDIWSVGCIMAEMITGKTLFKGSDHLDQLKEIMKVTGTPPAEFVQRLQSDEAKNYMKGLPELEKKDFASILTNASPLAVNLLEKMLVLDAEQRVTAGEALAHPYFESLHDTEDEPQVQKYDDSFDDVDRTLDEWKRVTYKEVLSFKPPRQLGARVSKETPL
Experimental: as §1

[7] = target: T7, MNK2 (Homo sapiens, UniProt Q9HBH9)
T7 construct: lines 1-140) and Reaction Biology
Experimental: as §1

[8] = target: T8, SIK2 (Homo sapiens, UniProt Q9H0K1)
T8 construct: lines 1-140) and Reaction Biology
Experimental: as §1

T7 sequence (Q9HBH9 whole entry): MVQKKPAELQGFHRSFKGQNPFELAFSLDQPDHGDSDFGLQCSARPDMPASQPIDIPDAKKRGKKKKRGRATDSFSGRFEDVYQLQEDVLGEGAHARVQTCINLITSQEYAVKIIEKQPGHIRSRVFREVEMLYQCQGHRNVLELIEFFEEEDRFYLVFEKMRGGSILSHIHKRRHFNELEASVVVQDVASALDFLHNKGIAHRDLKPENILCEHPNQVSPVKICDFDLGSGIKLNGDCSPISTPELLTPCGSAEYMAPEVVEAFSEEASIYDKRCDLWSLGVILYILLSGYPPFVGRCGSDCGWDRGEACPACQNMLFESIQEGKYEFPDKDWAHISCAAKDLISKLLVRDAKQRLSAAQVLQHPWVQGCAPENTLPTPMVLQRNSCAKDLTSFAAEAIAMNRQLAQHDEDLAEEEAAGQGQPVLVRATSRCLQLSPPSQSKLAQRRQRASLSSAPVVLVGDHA
T1 sequence (Q16584 whole entry): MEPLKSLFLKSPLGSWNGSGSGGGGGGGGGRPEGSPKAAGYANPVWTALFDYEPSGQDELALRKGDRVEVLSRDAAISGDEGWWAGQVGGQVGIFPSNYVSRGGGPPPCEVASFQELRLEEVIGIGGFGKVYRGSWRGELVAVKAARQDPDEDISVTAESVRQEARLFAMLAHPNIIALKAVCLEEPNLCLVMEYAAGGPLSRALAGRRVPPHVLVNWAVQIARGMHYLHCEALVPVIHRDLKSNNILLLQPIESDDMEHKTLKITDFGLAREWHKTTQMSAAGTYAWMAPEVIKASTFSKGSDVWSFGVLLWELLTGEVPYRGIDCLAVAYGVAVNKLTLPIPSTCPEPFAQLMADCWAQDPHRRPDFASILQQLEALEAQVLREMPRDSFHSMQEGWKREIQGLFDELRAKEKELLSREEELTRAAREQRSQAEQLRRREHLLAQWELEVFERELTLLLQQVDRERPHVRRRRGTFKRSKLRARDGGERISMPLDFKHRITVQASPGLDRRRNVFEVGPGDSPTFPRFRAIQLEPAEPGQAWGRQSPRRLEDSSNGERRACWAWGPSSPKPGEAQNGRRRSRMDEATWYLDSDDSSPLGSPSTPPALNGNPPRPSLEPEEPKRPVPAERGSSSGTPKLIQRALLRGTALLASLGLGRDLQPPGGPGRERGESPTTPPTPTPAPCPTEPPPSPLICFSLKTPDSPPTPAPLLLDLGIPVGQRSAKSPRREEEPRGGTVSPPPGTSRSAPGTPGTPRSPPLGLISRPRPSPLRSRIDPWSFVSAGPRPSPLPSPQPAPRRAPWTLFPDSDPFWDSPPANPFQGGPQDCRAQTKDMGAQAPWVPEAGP
T8 sequence (Q9H0K1 whole entry): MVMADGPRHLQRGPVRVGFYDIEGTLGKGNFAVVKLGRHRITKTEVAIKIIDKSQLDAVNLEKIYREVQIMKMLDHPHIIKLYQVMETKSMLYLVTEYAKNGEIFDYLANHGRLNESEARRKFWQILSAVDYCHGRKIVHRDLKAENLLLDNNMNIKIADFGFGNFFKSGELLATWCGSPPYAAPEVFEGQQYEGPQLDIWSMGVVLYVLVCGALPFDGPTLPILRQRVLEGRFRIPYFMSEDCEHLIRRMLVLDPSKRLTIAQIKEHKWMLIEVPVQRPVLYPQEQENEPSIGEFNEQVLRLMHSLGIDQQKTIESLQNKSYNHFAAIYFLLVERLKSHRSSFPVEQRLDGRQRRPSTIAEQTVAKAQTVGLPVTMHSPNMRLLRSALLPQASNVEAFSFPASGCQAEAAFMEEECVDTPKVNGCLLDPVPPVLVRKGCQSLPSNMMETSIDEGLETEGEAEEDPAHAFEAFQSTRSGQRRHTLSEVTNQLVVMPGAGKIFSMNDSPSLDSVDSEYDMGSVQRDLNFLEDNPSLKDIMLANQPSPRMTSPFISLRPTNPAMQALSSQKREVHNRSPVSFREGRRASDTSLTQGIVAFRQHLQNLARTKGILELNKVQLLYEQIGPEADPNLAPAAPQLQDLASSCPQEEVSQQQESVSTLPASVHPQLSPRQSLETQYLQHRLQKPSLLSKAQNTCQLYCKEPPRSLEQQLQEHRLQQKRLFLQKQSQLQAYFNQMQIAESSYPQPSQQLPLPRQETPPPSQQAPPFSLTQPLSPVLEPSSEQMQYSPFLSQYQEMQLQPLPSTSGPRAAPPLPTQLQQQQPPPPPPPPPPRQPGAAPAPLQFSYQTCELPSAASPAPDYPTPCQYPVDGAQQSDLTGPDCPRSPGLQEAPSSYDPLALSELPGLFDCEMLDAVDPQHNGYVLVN
T4 sequence (O75716 whole entry): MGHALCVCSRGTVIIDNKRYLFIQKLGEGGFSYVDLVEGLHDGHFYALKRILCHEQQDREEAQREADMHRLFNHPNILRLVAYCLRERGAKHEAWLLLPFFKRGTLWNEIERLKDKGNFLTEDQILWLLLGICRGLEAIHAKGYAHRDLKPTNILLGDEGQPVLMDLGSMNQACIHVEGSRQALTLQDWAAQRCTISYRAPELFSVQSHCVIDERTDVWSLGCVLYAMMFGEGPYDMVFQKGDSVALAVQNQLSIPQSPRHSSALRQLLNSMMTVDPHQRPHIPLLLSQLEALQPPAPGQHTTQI
T3 sequence (P51617 whole entry): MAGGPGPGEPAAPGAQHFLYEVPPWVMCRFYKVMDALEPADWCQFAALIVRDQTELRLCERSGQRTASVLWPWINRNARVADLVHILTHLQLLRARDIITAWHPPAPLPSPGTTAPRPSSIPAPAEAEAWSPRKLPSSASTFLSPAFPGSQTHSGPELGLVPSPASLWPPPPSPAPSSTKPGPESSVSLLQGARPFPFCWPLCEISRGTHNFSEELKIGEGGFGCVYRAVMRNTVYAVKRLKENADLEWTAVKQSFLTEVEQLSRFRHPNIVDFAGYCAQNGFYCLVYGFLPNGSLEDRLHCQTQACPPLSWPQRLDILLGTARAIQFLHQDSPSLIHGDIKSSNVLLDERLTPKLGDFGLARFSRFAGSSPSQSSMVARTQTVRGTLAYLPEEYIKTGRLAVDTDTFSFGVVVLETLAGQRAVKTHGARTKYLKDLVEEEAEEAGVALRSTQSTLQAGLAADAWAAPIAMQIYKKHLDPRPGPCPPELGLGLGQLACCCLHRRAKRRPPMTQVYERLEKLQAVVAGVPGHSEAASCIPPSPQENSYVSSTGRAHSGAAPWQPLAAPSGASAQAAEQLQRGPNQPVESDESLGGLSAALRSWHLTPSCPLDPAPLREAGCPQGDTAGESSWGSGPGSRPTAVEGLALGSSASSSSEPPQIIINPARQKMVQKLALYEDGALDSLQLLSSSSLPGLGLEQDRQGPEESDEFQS

SMILES	remaining activity at 1 µM [1] [%]	remaining activity at 1 µM [2] [%]	remaining activity at 1 µM [3] [%]	remaining activity at 1 µM [4] [%]	remaining activity at 1 µM [5] [%]	remaining activity at 1 µM [6] [%]	remaining activity at 1 µM [7] [%]	remaining activity at 1 µM [8] [%]	residual activity ([1]; 1 μM) [%]	residual activity ([2]; 1 μM) [%]	residual activity ([3]; 1 μM) [%]	residual activity ([4]; 1 μM) [%]	residual activity ([5]; 1 μM) [%]	residual activity ([6]; 1 μM) [%]	residual activity ([7]; 1 μM) [%]	residual activity ([8]; 1 μM) [%]
COCCOc1ccc(-c2cn(-c3ccccc3)c3nc[nH]c(=O)c23)cc1 [DMX-5804, 5-[4-(2-methoxy-ethoxy)-phenyl]-7-phenyl-3,7-dihydro-pyrrolo[2,3-d]pyrimidin-4-one]	12	103	100	103	89	117	111	90								
Oc1ncnc2c1c(-c1ccccc1)cn2-c1ccccc1 [F1386-0303, 5,7-diphenyl-7H-pyrrolo[2,3-d]pyrimidin-4-ol]	30	109	107	117	103	109	109	99								
Nc1ncc(C(=O)NC2CN(C(=O)C3CC3)C2)c2ccc(-c3cccc(F)c3)nc12 [GNE-495]									38	77	113	100	90	93	64	102
O=C1Nc2ccc(I)cc2/C1=C/c1cc(Br)c(O)c(Br)c1 [GW5074]	17	73	57	38	22	114	95	24								
O=C1Cc2c([nH]c3ccc(Br)cc23)-c2ccccc2N1 [Kenpaullone]	21	46	39	74	64	100	125	13								
